Series [1] deals with Parkinson's disease-affected mouse treated with MPTP. In words: Monitoring the therapeutic effect of amantadine in MPTP-induced Parkinson's disease mice. The class given is in vivo. As for the experimental part: (§1) Parkinson's disease was induced by specifically destroying a dopaminergic neuron existing in substantia nigra of a brain by a drug. For this, to each of C57BL male mice (koatech) (body weight: 21 to 23 g), MPTP (1-methyl-4-phenyl-1,2,3,6-tetrahydro pyridine hydrochloride) (Sigma) was administered with a single dose of 15 mg/kg. MPTP administration was carried out with an interval of 2 hours, four times through intraperitoneal injection, and each mouse was administered with MPTP in a total amount of 60 mg/kg.
(§2) On day 7, 14, and 21 from the administration of MPTP (day 0), the inventive peptide labeled with Cy7.5 was injected. The peptide was intravenously injected into a tail vein to a final concentration of 50 μM, under isoflurane anesthesia, and was circulated for 2 hours. Then, an in vivo near infrared fluorescence image was imaged. The mouse on which the experiment had been completed was immediately subjected to anesthesia and euthanasia. Then, a brain tissue sample was collected. From the dead mouse, blood was immediately removed by saline solution flushing through heart, and primarily fixed by re-flushing of 4% paraformaldehyde solution. The primarily fixed brain was collected from the mouse, and then postfixed by being placed for 1 day in 30% sucrose/phosphate buffer solution, and placed for 1 day in 4% paraformaldehyde phosphate buffer solution. The fixed brain tissues were rapidly frozen by dry ice, and formed into a block for frozen fractions. At some desired time, the stored brain block was prepared as frozen fractions, and used for various staining methods.
Also, in order to monitor the therapeutic effect of a drug, after 30 minutes from the administration of MPTP, amantadine used as a Parkinson's disease therapeutic agent was intraperitoneally administered into each mouse in a dose of 25 mg/kg a total of seven times with a one day interval. On day 7 from the administration of amantadine, the inventive peptide labeled with Cy7.5 was injected, and imaging and tissue staining were carried out in the same manner as described above. Apoptosis was analyzed in the same manner as described in Example <1-1>.

In series [2] the test system is apoptotic cells within Alzheimer's disease-affected brain tissues. In words: In vivo near infrared imaging of Alzheimer's disease model mice with Cy7.5-labeled peptide. Particulars: intravenous. Also noted: species or system mouse. The source says: (§3) As an Alzheimer's disease model, a transgenic mouse model over-expressing Amyloid precursor protein (APP) gene and Presenilin 1 (PS1) gene was used. The model animal has a characteristic that apoptosis together with extracellular accumulation of beta amyloid protein (one of the characteristics of Alzheimer's disease) gradually increases according to an increase of age. On mice, from a 5 month old mouse (early stage of alzheimer's disease) to a 13 month old mouse (severe stage), this experiment was performed according to the progression of disease. The apoptosis was confirmed by TUNEL (in vitro terminal deoxynucleotidyl transferase-mediated dUTP nick-end labeling) assay according to the manufacturer (Roche)'s instructions. In this method, biotin-dUTP is labeled at the end of a cleaved DNA fragment specifically occurring in apoptosis by using terminal deoxynucleotidyl transferase enzyme, and then fluorescence staining is performed by streptavidin-rhodamine (red fluorescent dye).
The Alzheimer's disease-affected mouse (5, 7, 9, and […]) models were intravenously injected with the inventive peptide (ApoPep-1) labeled with Cy7.5 near infrared fluorescence, under isoflurane anesthesia, to a final concentration of 50 μM. After 2 hours from the injection, a head region was imaged by near infrared imaging, and each brain was isolated and imaged by near infrared imaging. An in vivo near infrared fluorescence image was imaged by an Optix exPlore machine (ART). Also, by using the machine's own software, each image was standardized.
The peptide used in the present invention was synthesized by a standard Fmoc method, and separated by HPLC machine. The synthesis of the peptide was carried out by special companies (Peptron and Anygen). The peptide was synthesized in such a manner that N-terminal was combined with fluorescein isothiacyanate (FITC). Otherwise, after the synthesis of the peptide, N-terminal was combined with Cy7.5 near infrared fluorescent dye.

The subject of series [3] is apoptotic cells within Parkinson's disease-affected brain tissues. In words: In vivo near infrared imaging of MPTP-induced Parkinson's disease mice with Cy7.5-labeled peptide. Also on record: species or system mouse. The settings on record: for near infrared fluorescence at the brain region: Cy7.5-labeled, intravenous, 2 hours. The protocol:
as §1, §2

The subject of series [4] is apoptotic cells within Alzheimer's disease-affected brain tissues. Description: Immunofluorescence staining analysis of Alzheimer's disease-affected brain tissues injected with FITC-labeled peptide. The class given is in vivo. Particulars: frozen brain sections, Alzheimer's disease-affected mouse 13 months old. The protocol:
For histological examination, the brain tissues isolated from the mouse (13 months old) injected with the inventive peptide labeled with FITC fluorescence (green), which had been subjected to in vivo imaging in Example <1-1>, were postfixed by 4% paraformaldehyde liquid, and immersed in Sucrose/phosphate buffer for 24 hours. Then, they were prepared as frozen sections with a thickness of 30 μm by cryostat. Immunofluorescence staining on an antibody was carried out by using a secondary antibody labeled with alexa 568 (red fluorescent dye). Each tissue slide was observed by a fluorescence microscope (Zeiss).

Series [5] deals with apoptotic cells within Parkinson's disease-affected brain tissues. In words: Immunofluorescence / TUNEL staining of Parkinson's disease-affected brain tissues injected with FITC-labeled peptide. It counts as in vivo, mouse.
Excerpt: as §3, with “The apoptosis was confirmed by TUNEL (in vitro terminal deoxynucleotidyl transferase-mediated dUTP nick-end labeling) assay according to the manufacturer (Roche)'s instructions.” left out
[…] Then, an in vivo near infrared fluorescence image was imaged. […]
Also, in order to monitor the therapeutic effect of a drug, after 30 minutes from the administration of MPTP, amantadine used as a Parkinson's disease therapeutic agent was intraperitoneally administered into each mouse in a dose of 25 mg/kg a total of seven times with a one day interval. […] Apoptosis was analyzed in the same manner as described in Example <1-1>.

Where [6] appears, read: amantadine following MPTP vs MPTP alone, brain tissues.
The mark [7] stands for this setting: Parkinson's disease-affected mouse (MPTP), 50 μM final.

Where no end group is shown, it is not given here.

Turning to `NC12CC3CC(CC(C3)C1)C2` [amantadine], the “near infrared fluorescence of Cy7.5-labeled inventive peptide at brain region” value in series [1] (amantadine 25 mg/kg intraperitoneal, seven times at one day interval following MPTP, vs mouse administered with MPTP) is “lower near infrared fluorescence than the mouse administered with MPTP”. Also, the “number of TUNEL-stained apoptotic cells” value in series [1] (amantadine following MPTP vs MPTP alone) is listed as “reduction of apoptosis in neurons”. For the same compound, in series [1] (setting [6]), the “TUNEL staining (apoptosis biomarker)” value was “decrease of TUNEL staining” and the “antibody staining of tyrosine hydroxylase (TH) (dopaminergic neuron-specific marker)” value is on record as “increase of antibody staining of tyrosine hydroxylase”. The “number of TH-stained dopaminergic neurons” value in series [1] (amantadine following MPTP vs MPTP alone, p<0.01) is reported as “statistically significantly increased”.
As to “control peptide: control peptide (amino acid sequence, NSSSVDK) [reference compound]”, in series [2] (mouse (8 months old), Cy7.5-labeled, 2 hours after injection), the “near infrared fluorescence at brain region” value is given as “hardly observed”. Also, the “near infrared fluorescence at the brain region” value in series [3] (setting [7]) is “hardly observed”.
Take “inventive peptide: peptide targeting apoptotic cells, amino acid sequence CQRPPR (SEQ ID NO: 1), named ApoPep-1; N-terminal labeled with FITC or Cy7.5 (also: N-terminal FITC or Cy7.5 label)”: the “near infrared fluorescence intensity level at head region according to disease progression” value in series [2] (APP/PS1 Alzheimer's disease-affected mice 5, 7, 9, 13 months old, Cy7.5-labeled, 50 μM final, 2 hours after injection) is listed as “near infrared fluorescence intensity level increased”. The “near infrared fluorescence at the brain region, Alzheimer's disease-affected mouse versus normal mouse” value in series [2] (Alzheimer's disease-affected mouse (7 and 9 months old) vs normal (wild type) mouse (8 months old), 2 hours) is listed as “much stronger near infrared fluorescence at the brain region than the normal mouse”. Also, in series [4], the “co-staining of peptide (green) with antibody to Caspase-3 (apoptosis biomarker)” value is reported as “concurrently stained at the same cell”. The “distribution of peptide relative to brain blood vessel (α-SMA antibody staining); passing through blood-brain barrier” value in series [4] was “distributed within brain parenchyma outside of a brain blood vessel”. Further, the “near infrared fluorescence at the brain region” value in series [3] (setting [7]) is reported as “strong near infrared fluorescence was observed”; in series [3] (normal (wild type) mouse), “hardly observed”. Further, the “near infrared fluorescence at a brain region with the lapse of time” value in series [3] (after 1 week, 2 weeks and 3 weeks from administration of MPTP) is “became stronger”. Also, the “co-location of peptide (green) with TUNEL staining (apoptosis biomarker)” value in series [5] (brain tissues of MPTP mice and mice administered with amantadine following MPTP (FIG. 7c)) is recorded as “located at the same cell”; in series [5] (brain tissues of Parkinson's disease-affected mouse treated with MPTP, FITC-labeled peptide) it was “concurrently located at the same cell”.

The values are drawn from patent publication US8900551B2, “Peptide which passes through blood-brain barrier and targets apoptosis of neurodegenerative brain disease site and uses thereof” (Kyungpook National University Industry-Academic Cooperation …, priority 2009, dated 2014).
